Experiments:
Assay type in all cases: cell-based
SMARCA2 [1] = molecular target: T1, SMARCA2 (Homo sapiens, UniProt P51531); experiment: SMARCA2 Western blot degradation in MV4-11 cells; set-up: SMARCA2/SMARCA4 protein degradation selectivity in MV4-11 cells; endogenous in cells; host or cells: MV4-11; conditions: for DC50 / Selectivity in MV411 / SMARCA2 MSD MV411 degradation 24 h: average Dmax %: MV4-11 cells; for DC50 / Dmax / SMARCA2 MSD MV411 degradation 24 h: average Dmax %: 24 h; for DC50: read-out: SMARCA2 MSD MV411 degradation 24 h: Mean external-Abs DC50; for Selectivity in MV411: SMARCA2/4 selectivity; for Dmax: MV4-11, MV4-11 cells, read-out: SMARCA2 MSD MV411 degradation 24 h: average Dmax %
SMARCA2 [2] = molecular target: T1, SMARCA2; experiment: MSD SMARCA2 degradation in A549 cell line; conditions: for DC50 / SMARCA2 MSD A549 degradation 24 h: Average Dmax %: A549 cells; for DC50 / Dmax: 24 h; for DC50: read-out: SMARCA2 MSD A549 degradation 24 h: Average external-Abs DC50; for Dmax: A549, A549 cells
Method in brief: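 SMARCA2 protein remaining after 24 h exposure of A549 cells (top concentration 1000 nM, 3-fold dilutions) was measured by MSD electrochemiluminescence immunoassay of cell lysates. Results are given as binned DC50 and maximal degradation (Dmax) codes.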

SMARCA4 = molecular target: T2, SMARCA4 (Homo sapiens, UniProt P51532); experiment: SMARCA4 Western blot degradation in MV4-11 cells; conditions: for DC50 / SMARCA4 MSD MV411 degradation 24 h: average Dmax %: MV4-11 cells; for DC50 / Dmax: 24 h; for DC50: read-out: SMARCA4 MSD MV411 degradation 24 h: Mean external-Abs DC50; for Dmax: MV4-11, MV4-11 cells, read-out: SMARCA4 MSD MV411 degradation 24 h: average Dmax %
T2 construct: SMARCA2/SMARCA4 protein degradation selectivity in MV4-11 cells; endogenous in cells; host or cells: MV4-11
Method in brief: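 Protein levels quantified by LI-COR Western blot (beta-actin loading control) in RIPA lysates of MV4-11 cells after 24 h compound exposure. Degradation reported as DC50, Dmax % at 24 h and SMARCA2 vs SMARCA4 selectivity, each binned into letter codes.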

T2 sequence (P51532 whole entry): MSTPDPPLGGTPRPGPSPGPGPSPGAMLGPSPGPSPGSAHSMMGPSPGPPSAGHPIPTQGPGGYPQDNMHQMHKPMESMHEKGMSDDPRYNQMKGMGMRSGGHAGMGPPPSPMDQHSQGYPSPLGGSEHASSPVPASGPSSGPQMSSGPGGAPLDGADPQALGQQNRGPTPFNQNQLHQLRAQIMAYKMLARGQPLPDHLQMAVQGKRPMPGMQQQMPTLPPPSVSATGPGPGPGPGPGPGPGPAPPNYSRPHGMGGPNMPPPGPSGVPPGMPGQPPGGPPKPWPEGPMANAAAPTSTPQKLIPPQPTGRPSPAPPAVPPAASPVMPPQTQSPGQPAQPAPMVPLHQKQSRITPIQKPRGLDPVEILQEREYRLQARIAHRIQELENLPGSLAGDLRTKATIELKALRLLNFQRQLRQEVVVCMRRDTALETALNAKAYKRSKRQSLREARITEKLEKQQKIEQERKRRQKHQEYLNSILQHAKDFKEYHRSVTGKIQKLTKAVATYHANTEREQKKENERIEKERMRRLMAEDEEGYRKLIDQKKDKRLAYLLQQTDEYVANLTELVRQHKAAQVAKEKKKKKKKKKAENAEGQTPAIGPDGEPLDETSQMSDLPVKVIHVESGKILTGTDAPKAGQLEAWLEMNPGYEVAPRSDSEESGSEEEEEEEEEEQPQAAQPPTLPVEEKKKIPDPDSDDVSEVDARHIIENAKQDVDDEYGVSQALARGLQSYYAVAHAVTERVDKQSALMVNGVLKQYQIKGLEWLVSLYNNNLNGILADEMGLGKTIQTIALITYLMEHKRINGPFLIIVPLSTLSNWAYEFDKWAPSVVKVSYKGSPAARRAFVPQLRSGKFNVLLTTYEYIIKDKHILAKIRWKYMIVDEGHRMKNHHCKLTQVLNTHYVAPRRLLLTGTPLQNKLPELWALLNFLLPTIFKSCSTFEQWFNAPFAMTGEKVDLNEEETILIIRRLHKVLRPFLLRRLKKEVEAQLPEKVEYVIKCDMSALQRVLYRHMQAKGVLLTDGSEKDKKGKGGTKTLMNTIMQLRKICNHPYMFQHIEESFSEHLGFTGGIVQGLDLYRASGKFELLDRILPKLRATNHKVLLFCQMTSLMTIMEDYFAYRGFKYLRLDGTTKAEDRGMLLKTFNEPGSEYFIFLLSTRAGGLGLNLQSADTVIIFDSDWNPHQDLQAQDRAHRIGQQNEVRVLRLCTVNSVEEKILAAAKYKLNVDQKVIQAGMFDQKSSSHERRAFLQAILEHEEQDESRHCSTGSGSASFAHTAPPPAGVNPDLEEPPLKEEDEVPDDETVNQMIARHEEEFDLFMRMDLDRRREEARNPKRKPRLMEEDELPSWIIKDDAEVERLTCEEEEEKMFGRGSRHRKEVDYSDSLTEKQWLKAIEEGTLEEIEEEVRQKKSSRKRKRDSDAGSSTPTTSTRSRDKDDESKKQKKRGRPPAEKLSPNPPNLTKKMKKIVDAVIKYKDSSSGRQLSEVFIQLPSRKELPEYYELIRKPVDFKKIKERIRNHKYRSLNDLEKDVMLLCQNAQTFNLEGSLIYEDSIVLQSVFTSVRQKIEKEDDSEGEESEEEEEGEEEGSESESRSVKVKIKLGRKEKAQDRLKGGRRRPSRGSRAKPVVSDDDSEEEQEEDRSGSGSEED
T1 sequence (P51531 whole entry): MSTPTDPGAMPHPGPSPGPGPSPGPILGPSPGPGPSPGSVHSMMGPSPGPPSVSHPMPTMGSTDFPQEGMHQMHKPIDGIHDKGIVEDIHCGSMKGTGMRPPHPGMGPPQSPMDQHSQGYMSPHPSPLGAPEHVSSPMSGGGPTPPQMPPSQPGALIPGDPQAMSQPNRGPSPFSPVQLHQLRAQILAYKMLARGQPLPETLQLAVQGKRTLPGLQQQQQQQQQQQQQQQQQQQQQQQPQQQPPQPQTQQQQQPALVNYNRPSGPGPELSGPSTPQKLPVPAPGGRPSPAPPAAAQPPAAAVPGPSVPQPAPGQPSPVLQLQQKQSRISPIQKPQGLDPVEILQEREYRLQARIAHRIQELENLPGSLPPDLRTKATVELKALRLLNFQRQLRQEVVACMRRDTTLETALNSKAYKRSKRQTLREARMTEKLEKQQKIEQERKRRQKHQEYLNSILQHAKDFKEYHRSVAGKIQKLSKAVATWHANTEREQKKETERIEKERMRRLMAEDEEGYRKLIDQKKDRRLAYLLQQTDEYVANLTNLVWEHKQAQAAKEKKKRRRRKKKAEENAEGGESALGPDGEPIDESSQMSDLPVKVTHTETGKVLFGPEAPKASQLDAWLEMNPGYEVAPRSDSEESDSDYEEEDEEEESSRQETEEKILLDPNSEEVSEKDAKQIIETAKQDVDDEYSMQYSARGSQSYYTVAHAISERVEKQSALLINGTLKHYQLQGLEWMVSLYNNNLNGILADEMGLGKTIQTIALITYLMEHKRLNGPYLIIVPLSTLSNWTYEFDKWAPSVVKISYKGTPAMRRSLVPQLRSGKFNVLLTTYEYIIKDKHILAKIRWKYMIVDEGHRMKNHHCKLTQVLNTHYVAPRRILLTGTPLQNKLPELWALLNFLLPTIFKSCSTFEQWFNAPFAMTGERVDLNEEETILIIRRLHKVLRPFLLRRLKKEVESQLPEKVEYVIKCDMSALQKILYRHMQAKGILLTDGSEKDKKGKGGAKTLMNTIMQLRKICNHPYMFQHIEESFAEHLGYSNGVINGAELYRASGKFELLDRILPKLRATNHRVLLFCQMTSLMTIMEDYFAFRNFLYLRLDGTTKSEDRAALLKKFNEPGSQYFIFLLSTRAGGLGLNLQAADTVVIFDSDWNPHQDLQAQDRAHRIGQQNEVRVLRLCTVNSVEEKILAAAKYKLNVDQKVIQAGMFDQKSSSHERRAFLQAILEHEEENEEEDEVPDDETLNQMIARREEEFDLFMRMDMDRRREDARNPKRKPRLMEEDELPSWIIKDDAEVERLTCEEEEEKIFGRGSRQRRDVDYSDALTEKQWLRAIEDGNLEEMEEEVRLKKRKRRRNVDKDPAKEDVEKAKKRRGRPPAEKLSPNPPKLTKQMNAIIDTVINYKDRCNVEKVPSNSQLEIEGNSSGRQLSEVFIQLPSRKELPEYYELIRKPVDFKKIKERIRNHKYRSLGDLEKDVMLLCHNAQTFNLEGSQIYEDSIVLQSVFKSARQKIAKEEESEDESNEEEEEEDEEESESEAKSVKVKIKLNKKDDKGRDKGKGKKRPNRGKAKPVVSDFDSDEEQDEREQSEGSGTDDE

## C#Cc1ccc(CNC(=O)[C@@H]2C[C@@H](O)CN2C(=O)[C@@H](NC(=O)[C@H]2CC3(C2)C[C@H](c2cnc(N4CCC(N5CCN6c7cc(-c8ccccc8O)nnc7NC[C@H]6C5)CC4)nc2)C3)C(C)(C)C)cc1 (some centres unmarked) [I-302]
SMARCA2 [1]
  DC50: 1 to 10 nM
  Selectivity in MV411: C (C (10-100 fold))
SMARCA2 [2]
  DC50: 10 to 50 nM
SMARCA4
  DC50: 10 to 100 nM

## Cc1ncsc1-c1ccc(CNC(=O)[C@@H]2C[C@@H](O)CN2C(=O)[C@@H](NC(=O)[C@H]2CC[C@@H](c3ccc(-c4cnc(N5CCN6c7cc(-c8ccccc8O)nnc7NC[C@H]6C5)nc4)cc3)CC2)C(C)(C)C)cc1 [I-86]
SMARCA2 [1]
  Dmax: > 90%
  DC50: < 1 nM
  Selectivity in MV411: C (C (10-100 fold))
SMARCA2 [2]
  Dmax: > 90%
  DC50: < 10 nM
SMARCA4
  Dmax: > 90%
  DC50: 1 to 10 nM

## Cc1ncsc1-c1ccc(CNC(=O)[C@@H]2C[C@@H](O)CN2C(=O)[C@@H](NC(=O)C2(F)CC2)C(C)(C)C)c(O[C@H]2CC[C@H](N3CCC(c4cnc(N5CCc6[nH]c7nnc(-c8ccccc8O)cc7c6[C@@H]5C)nc4)CC3)CC2)c1 (single isomer, unassigned) [I-33]
SMARCA2 [1]
  Dmax: 50 to 70%
  DC50: 10 to 100 nM
  Selectivity in MV411: C (C (10-100 fold))
SMARCA2 [2]
  Dmax: 50 to 70%
  DC50: > 100 nM
SMARCA4
  Dmax: < 50%
  DC50: > 100 nM

## C#Cc1ccc(CNC(=O)[C@@H]2C[C@@H](O)CN2C(=O)[C@@H](NC(=O)[C@H]2CCC3(CC2)C[C@H](N2CCN(c4cnc(N5CCN6c7cc(-c8ccccc8O)nnc7NC[C@H]6C5)nc4)CC2)C3)C(C)(C)CCO)cc1 (single isomer, unassigned) [I-299]
SMARCA2 [1]
  SMARCA2 MSD MV411 degradation 24 h: average Dmax %: B (B (>70-90% degradation))
  DC50: 1 to 10 nM
  Selectivity in MV411: C (C (10-100 fold))
SMARCA2 [2]
  SMARCA2 MSD A549 degradation 24 h: Average Dmax %: A (A (>90% degradation))
  DC50: < 10 nM
SMARCA4
  SMARCA4 MSD MV411 degradation 24 h: average Dmax %: C (C (50-70% degradation))
  DC50: > 100 nM

## Cc1ncsc1-c1ccc(CNC(=O)[C@@H]2C[C@@H](O)CN2C(=O)[C@@H](NC(=O)[C@H]2CC3(C2)C[C@H](N2CCC(N4CCC(c5ccc6[nH]c7nnc(-c8ccccc8O)cc7c6c5)CC4)CC2)C3)C(C)(C)C)cc1 (single isomer, unassigned) [I-28]
SMARCA2 [1]
  Dmax: 50 to 70%
  DC50: 10 to 100 nM
  Selectivity in MV411: C (C (10-100 fold))
SMARCA2 [2]
  Dmax: 70 to 90%
  DC50: 50 to 100 nM
SMARCA4
  Dmax: < 50%
  DC50: > 100 nM

## C#Cc1ccc(CNC(=O)[C@@H]2C[C@@H](O)CN2C(=O)[C@@H](NC(=O)N2CC3(CC(N4CCC(c5cnc(N6CCc7[nH]c8nnc(-c9ccccc9O)cc8c7[C@H]6C)nc5)CC4)C3)C2)C(C)(C)CCN2CCOCC2)cc1 (single isomer, unassigned) [I-338]
SMARCA2 [1]
  Dmax: < 50%
  DC50: > 100 nM
  Selectivity in MV411: C (C (10-100 fold))
SMARCA2 [2]
  Dmax: < 50%
  DC50: > 100 nM
SMARCA4
  Dmax: < 50%
  DC50: > 100 nM

## C#Cc1cnc(CNC(=O)[C@@H]2C[C@@H](O)CN2C(=O)[C@@H](NC(=O)[C@H]2CCC3(CC2)C[C@H](N2CCC(c4cnc(N5CCN6c7cc(-c8ccccc8O)nnc7NC[C@H]6C5)nc4)CC2)C3)C(C)(C)C)c(OC)c1 (single isomer, unassigned) [I-298]
SMARCA2 [1]
  SMARCA2 MSD MV411 degradation 24 h: average Dmax %: D (D (<50% degradation))
  DC50: > 100 nM
  Selectivity in MV411: D (D (<10 fold))
SMARCA2 [2]
  SMARCA2 MSD A549 degradation 24 h: Average Dmax %: B (B (>70-90% degradation))
  DC50: 10 to 50 nM
SMARCA4
  SMARCA4 MSD MV411 degradation 24 h: average Dmax %: D (D (<50% degradation))
  DC50: > 100 nM

## C#Cc1ccc(CNC(=O)[C@@H]2C[C@@H](O)CN2C(=O)[C@@H](NC(=O)N2CC3(CC(N4CCC([C@H]5CC[C@H](N6CCc7[nH]c8nnc(-c9ccccc9O)cc8c7[C@H]6C)CC5)CC4)C3)C2)C(C)(C)C)cc1 [I-184]
SMARCA2 [1]
  Dmax: < 50%
  DC50: > 100 nM
  Selectivity in MV411: C (C (10-100 fold))
SMARCA2 [2]
  Dmax: > 90%
  DC50: > 100 nM
SMARCA4
  Dmax: < 50%
  DC50: > 100 nM

## C#Cc1ccc(CNC(=O)[C@@H]2C[C@@H](O)CN2C(=O)[C@@H](N(CCN(C)C)C(=O)N2CC3(CC(N4CCC(c5cnc(N6CCc7[nH]c8nnc(-c9ccccc9O)cc8c7[C@H]6C)nc5)CC4)C3)C2)C(C)(C)C)cc1 [I-141]
SMARCA2 [1]
  Dmax: < 50%
  DC50: > 100 nM
  Selectivity in MV411: C (C (10-100 fold))
SMARCA2 [2]
  Dmax: < 50%
  DC50: > 100 nM
SMARCA4
  Dmax: < 50%
  DC50: > 100 nM

## CC#Cc1ccc(CNC(=O)[C@@H]2C[C@@H](O)CN2C(=O)[C@@H](NC(=O)[C@H]2CCC3(CC2)C[C@H](N2CCC(c4cnc(N5CCN6c7cc(-c8ccccc8O)nnc7NC[C@H]6C5)nc4)CC2)C3)C(C)(C)C)cc1 (single isomer, unassigned) [I-117]
SMARCA2 [1]
  SMARCA2 MSD MV411 degradation 24 h: average Dmax %: C (C (50-70% degradation))
  DC50: 10 to 100 nM
  Selectivity in MV411: C (C (10-100 fold))
SMARCA2 [2]
  SMARCA2 MSD A549 degradation 24 h: Average Dmax %: A (A (>90% degradation))
  DC50: > 100 nM
SMARCA4
  SMARCA4 MSD MV411 degradation 24 h: average Dmax %: D (D (<50% degradation))
  DC50: > 100 nM

## Cc1ncsc1-c1ccc(CNC(=O)[C@@H]2C[C@@H](O)CN2C(=O)[C@@H](NC(=O)[C@H]2CC3(CC[C@H](N4CCN(c5ccnc(N6CCc7[nH]c8nnc(-c9ccccc9O)cc8c7[C@H]6C)n5)CC4)CC3)C2)C(C)(C)C)cc1 (single isomer, unassigned) [I-81]
SMARCA2 [1]
  SMARCA2 MSD MV411 degradation 24 h: average Dmax %: A (A (>90% degradation))
  DC50: 1 to 10 nM
  Selectivity in MV411: C (C (10-100 fold))
SMARCA2 [2]
  SMARCA2 MSD A549 degradation 24 h: Average Dmax %: A (A (>90% degradation))
  DC50: 10 to 50 nM
SMARCA4
  SMARCA4 MSD MV411 degradation 24 h: average Dmax %: B (B (>70-90% degradation))
  DC50: 10 to 100 nM

## Cc1ncsc1-c1ccc(CNC(=O)[C@@H]2C[C@@H](O)CN2C(=O)[C@@H](NC(=O)[C@H]2CCC3(CC2)C[C@H](N2CCC4(CC2)CN(C(=O)N2CCN5c6cc(-c7ccccc7O)nnc6NC[C@H]5C2)CCO4)C3)C(C)(C)C)cc1 (single isomer, unassigned) [I-133]
SMARCA2 [1]
  Dmax: 70 to 90%
  DC50: 10 to 100 nM
  Selectivity in MV411: C (C (10-100 fold))
SMARCA2 [2]
  Dmax: 70 to 90%
  DC50: > 100 nM
SMARCA4
  Dmax: 50 to 70%
  DC50: > 100 nM

## C#Cc1ccc2c(c1)OCC[C@H]2NC(=O)[C@@H]1C[C@@H](O)CN1C(=O)[C@@H](NC(=O)N1CC2(CC(N3CCC(c4cnc(N5CCc6[nH]c7nnc(-c8ccccc8O)cc7c6[C@H]5C)nc4)CC3)C2)C1)C(C)(C)C (single isomer, unassigned) [I-236]
SMARCA2 [1]
  Dmax: 50 to 70%
  DC50: > 100 nM
  Selectivity in MV411: D (D (<10 fold))
SMARCA2 [2]
  Dmax: 70 to 90%
  DC50: > 100 nM
SMARCA4
  Dmax: < 50%
  DC50: > 100 nM

## Cc1ncsc1-c1ccc(CNC(=O)[C@@H]2C[C@@H](O)CN2C(=O)C(c2cc(OCCCCN3CCC(c4cnc(N5CCN6c7cc(-c8ccccc8O)nnc7NC[C@H]6C5)nc4)CC3)no2)C(C)C)cc1 (stereo partly drawn) [I-50, (2S,4R)-4-hydroxy-1-(2-(3-(4-(4-(2-((S)-2-(2-hydroxyphenyl)-6a,7,9,10-tetrahydro-5H-pyrazino[1′,2′:4,5]pyrazino[2,3-c]pyridazin-8(6H)-yl)pyrimidin-5-yl)piperidin-1-yl)butoxy)isoxazol-5-yl)-3-methylbutanoyl)-N-(4-(4-methylthiazol-5-yl)benzyl)pyrrolidine-2-carboxamide]
SMARCA2 [1]
  Dmax: > 90%
  DC50: < 1 nM
  Selectivity in MV411: D (D (<10 fold))
SMARCA2 [2]
  Dmax: > 90%
  DC50: < 10 nM
SMARCA4
  Dmax: > 90%
  DC50: 1 to 10 nM

## Cc1ncsc1-c1ccc(CNC(=O)[C@@H]2C[C@@H](O)CN2C(=O)[C@@H](NC(=O)[C@H]2CC3(CC[C@H](N4CCN(c5ccnc(N6CCc7[nH]c8nnc(-c9ccccc9O)cc8c7[C@H]6C)n5)CC4)CC3)C2)C(C)(C)C)cc1 (some centres unmarked) [I-80]
SMARCA2 [1]
  Dmax: > 90%
  DC50: < 1 nM
  Selectivity in MV411: C (C (10-100 fold))
SMARCA2 [2]
  Dmax: > 90%
  DC50: < 10 nM
SMARCA4
  Dmax: > 90%
  DC50: 1 to 10 nM

## Cc1ncsc1-c1ccc(CNC(=O)[C@@H]2C[C@@H](O)CN2C(=O)[C@@H](NC(=O)N2CC3(CC(N4CCC(c5cnc(N6CCN7c8cc(-c9ccccc9O)nnc8NC[C@H]7C6)nc5)CC4)C3)C2)C(C)(C)C)cc1 [I-64]
SMARCA2 [1]
  Dmax: > 90%
  DC50: 1 to 10 nM
  Selectivity in MV411: C (C (10-100 fold))
SMARCA2 [2]
  Dmax: > 90%
  DC50: 10 to 50 nM
SMARCA4
  Dmax: 50 to 70%
  DC50: 10 to 100 nM

## C#Cc1ccc(CNC(=O)[C@@H]2C[C@@H](O)CN2C(=O)[C@@H](NC(=O)N2CC3(CC(N4CCC(c5cnc(N6CCc7[nH]c8nnc(-c9ccccc9O)cc8c7[C@H]6C)nc5)CC4)C3)C2)C(C)(C)CCO)c(Cl)c1 (single isomer, unassigned) [I-317]
SMARCA2 [1]
  Dmax: 70 to 90%
  DC50: 1 to 10 nM
  Selectivity in MV411: C (C (10-100 fold))
SMARCA2 [2]
  Dmax: > 90%
  DC50: 10 to 50 nM
SMARCA4
  Dmax: 70 to 90%
  DC50: > 100 nM

— patent US20250170248A1, “SMARCA DEGRADERS AND USES THEREOF” (Kymera Therapeutics, Inc., priority 2021, published 2025)
